Laboratory results taken from ChEMBL document CHEMBL6114967, “Design and synthesis of novel sulfur-substituted triptolide with the ability to induce autophagy through inhibition of SRSF1 expression” (Eur J Med Chem, 2025).
Active and inactive are the calls of the source. The rule behind the calls is not given here.

Legend:
[1] = test system: HGC-27; assay: Induction of autophagy in human HGC-27 cells assessed as upregulation of ATG5 protein level at 0.5 to 2 uM incubated for 48 hrs by Western blotting analysis; type: functional, cell-based; conditions: dose 0.5-2 µM
[2] = test system: HGC-27; assay: Induction of apoptosis in human HGC-27 cells assessed as increase in cleaved PARP expression at 0.5 to 2 uM incubated overnight by Western blotting analysis; type: functional, cell-based; conditions: dose 0.5-2 µM
[3] = test system: AGS; assay: Induction of apoptosis in human AGS cells assessed as necrotic cells at 0.5 uM incubated for 48 hrs by annexin V-FITC and PI staining based flow cytometry analysis (reference value: 0.44%); type: functional
[4] = test system: AGS; assay: Induction of apoptosis in human AGS cells assessed as viable cells at 0.5 uM incubated for 48 hrs by annexin V-FITC and PI staining based flow cytometry analysis (reference value: 92.0%); type: functional; conditions: read-out: Activity
[5] = test system: HGC-27; assay: Induction of apoptosis in human HGC-27 cells assessed as late apoptotic cells at 1 uM incubated for 48 hrs by annexin V-FITC and PI staining based flow cytometry analysis (reference value: 5.02%); type: functional
[6] = test system: HepG2; assay: Antiproliferative activity against human HepG2 cells assessed as inhibition of cell proliferation incubated for 72 hrs by MTT assay; type: functional, cell-based; conditions: HepG2, 72 h
[7] = test system: AGS; assay: Induction of cell cycle arrest in human AGS cells assessed as increase in P21 expression at 0.5 to 2 uM by Western blotting analysis; type: functional, cell-based; conditions: dose 0.5-2 µM
[8] = Acute toxicity in male ICR mouse assessed as abnormal hepatocyte morphology at 1 g/Kg, ip measured after 7 days by H and E staining based light microscopic analysis; type: organism-based; conditions: in vivo, 1000 mg/kg, 168 h, time 7 day
[9] = test system: HGC-27; assay: Induction of apoptosis in human HGC-27 cells assessed as viable cells at 1 uM incubated for 48 hrs by annexin V-FITC and PI staining based flow cytometry analysis (reference value: 91.8%); type: functional; conditions: read-out: Activity
[10] = test system: AGS; assay: Induction of apoptosis in human AGS cells assessed as increase in cleaved caspase-3 expression at 0.5 to 2 uM incubated overnight by Western blotting analysis; type: functional, cell-based; conditions: dose 0.5-2 µM
[11] = test system: HGC-27; assay: Induction of apoptosis in human HGC-27 cells assessed as early apoptotic cells at 1 uM incubated for 48 hrs by annexin V-FITC and PI staining based flow cytometry analysis (reference value: 3.13%); type: functional
[12] = test system: AGS; assay: Downregulation of Bcl-xl expression in human AGS cells at 0.5 to 2 uM incubated overnight by Western blotting analysis; type: functional, cell-based; conditions: dose 0.5-2 µM
[13] = test system: AGS; assay: Induction of apoptosis in human AGS cells assessed as necrotic cells at 1 uM incubated for 48 hrs by annexin V-FITC and PI staining based flow cytometry analysis (reference value: 0.44%); type: functional
[14] = test system: AGS; assay: Induction of apoptosis in human AGS cells assessed as necrotic cells at 2 uM incubated for 48 hrs by annexin V-FITC and PI staining based flow cytometry analysis (reference value: 0.44%); type: functional
[15] = test system: AGS; assay: Induction of apoptosis in human AGS cells assessed as late apoptotic cells at 1 uM incubated for 48 hrs by annexin V-FITC and PI staining based flow cytometry analysis (reference value: 3.15%); type: functional
[16] = test system: HGC-27; assay: Antitumor activity against human HGC-27 cells xenografted in male BALB/c nude mouse assessed as tumor growth inhibition at 25 mg/kg, ip administered every day for 15 days relative to control; type: functional; conditions: HGC-27, 360 h, time 15 day, read-out: TGI
[17] = test system: AGS; assay: Induction of apoptosis in human AGS cells assessed as early apoptotic cells at 0.5 uM incubated for 48 hrs by annexin V-FITC and PI staining based flow cytometry analysis (reference value: 4.44%); type: functional
[18] = test system: HGC-27; assay: Induction of autophagy in human HGC-27 cells assessed as upregulation of LC3 I protein level at 0.5 to 2 uM incubated for 48 hrs by Western blotting analysis; type: functional, cell-based; conditions: dose 0.5-2 µM
[19] = test system: HGC-27; assay: Upregulation of BECN1 mRNA expression in human HGC-27 cells at 2 uM incubated for 24 hrs; type: functional, cell-based
[20] = test system: B16-F10; assay: Antiproliferative activity against mouse B16-F10 cells assessed as inhibition of cell proliferation incubated for 72 hrs by MTT assay; type: functional, cell-based; conditions: B16-F10, 72 h
[21] = test system: HGC-27; assay: Antitumor activity against human HGC-27 cells xenografted in male BALB/c nude mouse assessed as tumor growth inhibition at 100 mg/kg, ip administered every day for 15 days relative to control; type: functional; conditions: HGC-27, 360 h, time 15 day, read-out: TGI
[22] = test system: AGS; assay: Induction of apoptosis in human AGS cells assessed as early apoptotic cells at 1 uM incubated for 48 hrs by annexin V-FITC and PI staining based flow cytometry analysis (reference value: 4.44%); type: functional
[23] = test system: HGC-27; assay: Induction of apoptosis in human HGC-27 cells assessed as necrotic cells at 2 uM incubated for 48 hrs by annexin V-FITC and PI staining based flow cytometry analysis (reference value: 0.062%); type: functional
[24] = test system: AGS; assay: Induction of apoptosis in human AGS cells assessed as viable cells at 2 uM incubated for 48 hrs by annexin V-FITC and PI staining based flow cytometry analysis (reference value: 92.0%); type: functional; conditions: read-out: Activity
[25] = test system: BGC-823; assay: Antiproliferative activity against human BGC-823 cells assessed as inhibition of cell proliferation incubated for 72 hrs by MTT assay; type: functional, cell-based; conditions: BGC-823, 72 h
[26] = test system: AGS; assay: Downregulation of SRSF1 protein level in human AGS cells at 0.5 to 2 uM by Western blotting analysis; type: functional, cell-based; conditions: dose 0.5-2 µM
[27] = test system: AGS; assay: Antiproliferative activity against human AGS cells assessed as inhibition of cell proliferation incubated for 72 hrs by MTT assay; type: functional, cell-based
[28] = test system: AGS; assay: Downregulation of Bcl-xl protein level in human AGS cells at 0.5 to 2 uM by Western blotting analysis; type: functional, cell-based; conditions: dose 0.5-2 µM
[29] = test system: AGS; assay: Induction of cell cycle arrest in human AGS cells assessed as reduction in CyclinE2 expression at 0.5 to 2 uM by Western blotting analysis; type: functional, cell-based; conditions: dose 0.5-2 µM
[30] = test system: HGC-27; assay: Induction of autophagy in human HGC-27 cells assessed as downregulation of P62 protein level at 0.5 to 2 uM incubated for 48 hrs by Western blotting analysis; type: functional, cell-based; conditions: dose 0.5-2 µM
[31] = test system: HGC-27; assay: Induction of apoptosis in human HGC-27 cells assessed as viable cells at 2 uM incubated for 48 hrs by annexin V-FITC and PI staining based flow cytometry analysis (reference value: 91.8%); type: functional; conditions: read-out: Activity
[32] = test system: SGC-7901; assay: Antiproliferative activity against human SGC-7901 cells assessed as inhibition of cell proliferation incubated for 72 hrs by MTT assay; type: functional, cell-based; conditions: SGC-7901, 72 h
[33] = test system: HGC-27; assay: Induction of apoptosis in human HGC-27 cells assessed as viable cells at 0.5 uM incubated for 48 hrs by annexin V-FITC and PI staining based flow cytometry analysis (reference value: 91.8%); type: functional; conditions: read-out: Activity
[34] = test system: HGC-27; assay: Induction of apoptosis in human HGC-27 cells assessed as early apoptotic cells at 2 uM incubated for 48 hrs by annexin V-FITC and PI staining based flow cytometry analysis (reference value: 3.13%); type: functional
[35] = test system: HGC-27; assay: Induction of autophagy in human HGC-27 cells assessed as increase in green fluorescent number co-treated with chloroquine at 2 uM incubated for 48 hrs by DAPI staining based immunofluorescence analysis; type: functional, cell-based
[36] = test system: HGC-27; assay: Induction of apoptosis in human HGC-27 cells assessed as late apoptotic cells at 0.5 uM incubated for 48 hrs by annexin V-FITC and PI staining based flow cytometry analysis (reference value: 5.02%); type: functional

SMILES: CC(C)[C@]12O[C@H]1[C@@H]1O[C@]13[C@]1(O[C@H]1C[C@H]1C4=C(CC[C@@]13C)C(=S)OC4)[C@@H]2O
- Activity [1]: Active
- Activity [2]: Active
- Activity [3]: 0.55%
- viability at 0.5 µM [4]: 82.3%
- Activity [5]: 9.29%
- IC50 [6]: 350 nM
- Activity [7]: Active
- Activity [8]: Non-toxic
- viability at 1 µM [9]: 84.5%
- Activity [10]: Active
- Activity [11]: 6.12%
- Activity [12]: Active
- Activity [13]: 0.73%
- Activity [14]: 0.82%
- Activity [15]: 17%
- inhibition in vivo at 25 mg/kg [16]: 63.7%
- Activity [17]: 9.27%
- Activity [18]: Active
- Activity [19]: Active
- IC50 [20]: 330 nM
- inhibition in vivo at 100 mg/kg [21]: 82.7%
- Activity [22]: 17.2%
- Activity [23]: 0.16%
- viability at 2 µM [24]: 35.9%
- IC50 [25]: 1330 nM
- Activity [26]: Active
- IC50 [27]: 640 nM
- Activity [28]: Active
- Activity [29]: Active
- Activity [30]: Active
- viability at 2 µM [31]: 52%
- IC50 [32]: 1800 nM
- viability at 0.5 µM [33]: 85.9%
- Activity [34]: 28.1%
- Activity [35]: Active
- Activity [36]: 10.5%
